Experimental data reported in US11103457B2, “Pharmaceutical compositions comprising safinamide” (Zambon S.P.A., priority 2017, dated 2021).

Test: Sensory evaluation of the active ingredient safinamide (taste and irritation in the mouth)
Assay type: in vivo
Conditions: five minutes after rinsing with drinking water; 2 subjects
Method: In order to verify the unpleasant taste and irritation sensation of the active pharmaceutical ingredient, safinamide methanesulphonate, a test was performed in vivo by using an amount of safinamide methanesulfonate equal to 100 mg of safinamide base. Sensory evaluation was carried out by recruiting 2 subjects, who were asked to put said amount in the mouth by avoiding swallowing the mass. At the end of the test, participants were asked to rinse the mouth with plenty of drinking water; five minutes later their tongue and palate resulted to be still sore.

C[C@H](NCc1ccc(OCc2cccc(F)c2)cc1)C(N)=O [safinamide methanesulfonate, (2S)-2-[[4-[(3-fluorophenyl)methoxy]phenyl]methylamino]propanamide]
tongue and palate after rinsing the mouth: still sore
